Our source for the Ki values is BindingDB's records for doi:10.1016/0014-2999(93)90076-T (University of North Carolina, 1993).

The target of this assay is T1, D1 dopamine receptor (Macaca fascicularis, UniProt Q5I6B7).
T1 sequence (Q5I6B7 whole entry): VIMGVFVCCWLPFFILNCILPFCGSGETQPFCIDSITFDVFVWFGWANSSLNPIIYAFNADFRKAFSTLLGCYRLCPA

Consider `Oc1cc2c(cc1O)[C@@H](c1ccccc1)CNCC2`, for which the Ki was found to be 106 nM. As for `CN1CCc2cc(Cl)c(O)cc2[C@@H](c2ccccc2)C1` [SCH 23390,R(+)], the figure is 1.3 nM; as for `Oc1cc2c(cc1O)[C@@H]1c3ccccc3CN[C@@H]1CC2` [(+/-)-trans-10,11-dihydroxy-5,6,6a,7,8,12b-hexahydrobenzo[a]phenanthridine], 20.2 nM.
